Data published in patent US5214165A, “Compounds useful as intermediates in the synthesis of shikimic acid derivatives” (Imperial Chemical Industries PLC, priority 1989, dated 1993).
≈ marks a conversion by molar mass, not a printed value. Read-outs that look alike come from different tables or passages of the source.

Legend:
Klebsiella pneumoniae [1] = experiment: interaction with sulphamethoxazole, disc approximation method; type: cell-based
Protocol: (§1) 3) The interaction of 6-fluoroshikimate (racemic mixture) with a representative sulphonamide (sulphamethoxazole) was tested using both a disc approximation method and chequerboard titration.

E. coli K12 [2] = experiment: as above; type: cell-based
Protocol: as §1

Enterobacter cloacae [3] = experiment: as above; type: cell-based
Protocol: as §1

carrot cells [4] = experiment: standard carrot cell test for herbicidal activity; type: cell-based; details: carrot cells in liquid culture, shake flasks, 25° C.
Protocol: 5) In a standard test for herbicidal activity carrot cells were grown in shake flasks at 25° C. in liquid culture (Murashige and Skoog media with 0.2 mg/liter of kinetin and 0.1 mg/liter of 2.4 dichlorophenoxyacetic acid). The growth of cells was measured and an IC50 value obtained for compounds which were added in water.

E. coli K12 [5] = experiment: interaction with sulphamethoxazole, chequerboard titration; type: cell-based
Protocol: as §1

E. coli N99 [6] = experiment: disc diffusion antibacterial activity, zones of inhibition; type: cell-based; details: Escherichia coli; for zone of inhibition at 1.5 µg/disc: 1.5 μg applied on to disc
Protocol: (§2) 1) Antimicrobial activity was assessed in vitro using a disc diffusion method and a method wherein the test compound was in agar. Both methods employed the use of Davis and Mingioli (J. Bact (1950) 60 17-28) glucose agar.
i) The disc diffusion method used an overnight culture of E. coli N99 in Davis and Mingioli broth as an ioculum for the agar (e.g. 500 μl/100 ml agar). Test compounds were dissolved in distilled water and placed on to a 6 mm diameter disc which had just been applied to the agar surface. The plates were then incubated for 16 hours at 37° C. Using this method the following zones of inhibition were observed.

Bacillus licheniformis = experiment: test compound in agar method, MIC; type: cell-based; details: glucose agar, 16 hours at 37° C., read-out: MIC (minimum inhibitory concentration)
Protocol: as §2
(§3) ii) The "test compound in agar" method studied 6-α-fluoroshikimate at various final concentration in the agar (i.e. between 0 and 500 μg/ml) to obtain MIC (minimum inhibitory concentration) values for nine different bacterial cultures. Cultures were grown in Davis and Mingioli broth for 16 hours at 37° C. and diluted in fresh Davis and Mingioli broth to give 10^6 cells/ml. 1 μl volume of each culture was applied to the surface of each agar plate containing 6-α-fluoroshikimate and the plates were then incubated for 16 hours at 37° C. before each inoculation spot was visually assessed for growth. Using this technique the following results were observed: […]

Serratia marcescens = experiment: test compound in agar method, MIC; type: cell-based; details: glucose agar, 16 hours at 37° C., read-out: MIC (minimum inhibitory concentration)
Protocol: as §2, §3

[7] = test system: Pseudomonas aeruginosa 799/wt; experiment: test compound in agar method, MIC; type: cell-based; details: glucose agar, 16 hours at 37° C., read-out: MIC (minimum inhibitory concentration)
Protocol: as §2, §3

[8] = test system: Klebsiella pneumoniae ATCC 25304; experiment: test compound in agar method, MIC; type: cell-based; details: ATCC25304, glucose agar, 16 hours at 37° C., read-out: MIC (minimum inhibitory concentration)
Protocol: as §2, §3

Klebsiella pneumoniae [9] = experiment: test compound in agar method, MIC; type: cell-based; details: glucose agar, 16 hours at 37° C., read-out: MIC (minimum inhibitory concentration)
Protocol: as §2, §3

E. coli. B = experiment: test compound in agar method, MIC; type: cell-based; details: Escherichia coli, glucose agar, 16 hours at 37° C., read-out: MIC (minimum inhibitory concentration)
Protocol: as §2, §3

E. coli. N99 = experiment: test compound in agar method, MIC; type: cell-based; details: Escherichia coli, glucose agar, 16 hours at 37° C., read-out: MIC (minimum inhibitory concentration)
Protocol: as §2, §3

Enterobacter cloacae [10] = experiment: test compound in agar method, MIC; type: cell-based; details: glucose agar, 16 hours at 37° C., read-out: MIC (minimum inhibitory concentration)
Protocol: as §2, §3

Bacillus subtilis = experiment: test compound in agar method, MIC; type: cell-based; details: glucose agar, 16 hours at 37° C., read-out: MIC (minimum inhibitory concentration)
Protocol: as §2, §3

E. coli N99 [11] = experiment: mouse protection test; type: in vivo; set-up: unit not given beside the values; details: mice
Protocol: 4) The in vivo efficacy of the fluoroshikimate was determined by the use of a mouse protection test. Male mice (18-20 g) were inoculated intraperitoneally with ten times the previously determined LD50 for E. coli N99 in 0.4 ml of hog gastric mucin (12%). Immediately after infection the mice were dosed with 0.2 ml of test compound either subcutaneously, per os or intraperitoneally. Based on the number of survivors at day 4 post infection, PD50 values were calculated by LOGIT analysis.

S. dublin 369001 = experiment: mouse protection test; type: in vivo; set-up: unit not given beside the values; details: mice
E. coli 341094 = experiment: mouse protection test; type: in vivo; set-up: unit not given beside the values; details: mice
S. aureus 601055 = experiment: mouse protection test; type: in vivo; set-up: unit not given beside the values; details: mice
E. coli N99 [12] = experiment: reversal studies of growth inhibition by 6α-fluoroshikimate; type: cell-based; details: in presence of 6α-fluoroshikimate; for Effect on the E. coli N99 inhibited growth: agent (each) at 100.0 μg/ml final well concentration, result in words
Protocol: 2) Reversal studies were performed by adding agents to an E. coli N99 (Davis and Mingioli broth) 10^6 cells/ml. suspension in the presence of 6α-fluoroshikimate and the bacterial growth assessed by the use of a spectrophotometer (Absorbance 540 nm)
Inhibition of bacterial growth was reversed by paraaminobenzoic acid (PABP) but degrees of counter reversion were seen after the addition of aromatic amino acid types. Using this technique the following results were observed: […]

carrot cells [13] = details: well-known herbicide, in words; cited from earlier work
[14] = 16 hours at 37° C. (α: hazy zone), read-out: mm diameter zones of inhibition vs. E. coli N99

For `O=C(O)C1=CC(O)C(O)C(O)C1F` (racemic) [6-fluoroshikimate (racemic mixture)], the “synergistic interaction with sulphamethoxazole” value (Klebsiella pneumoniae [1]) was “synergistic interaction”, the “synergistic interaction with sulphamethoxazole” value (E. coli K12 [2]) was “synergistic interaction” and the “synergistic interaction with sulphamethoxazole” value (Enterobacter cloacae [3]) was “synergistic interaction”. The “IC50 (growth of carrot cells)” value (carrot cells [4]) was 1.5 μ/ml and the “synergistic interaction with sulphamethoxazole” value (E. coli K12 [5]) was “synergistic interaction was confirmed”.
`O=C(O)C1=C[C@@H](O)[C@@H](O)[C@H](O)[C@@H]1F` [6-β-fluoroshikimate, (3R,4R,5S,6R)6-β-Fluoroshikimic acid] showed a zone of inhibition at 1.5 µg/disc (E. coli N99 [6]; [14]) of 0 mm, a zone of inhibition at 3 µg/disc (E. coli N99 [6]; 3.0 μg applied on to disc, 16 hours at 37° C., very hazy, read-out: mm diameter zones of inhibition vs. E. coli N99) of 13 mm and a zone of inhibition at 30 µg/disc (E. coli N99 [6]; 30.0 μg applied on to disc, 16 hours at 37° C., very hazy, read-out: mm diameter zones of inhibition vs. E. coli N99) of 26 mm.
`O=C(O)C1=C[C@@H](O)[C@@H](O)[C@H](O)[C@H]1F` [6-α-fluoroshikimate, (3R,4R,5S,6S)6-α-Fluoroshikimic acid] showed an MIC (Bacillus licheniformis) greater than 500 µg/mL, an MIC (Serratia marcescens) greater than 500 µg/mL and an MIC [7] greater than 500 µg/mL. For the same compound, the MIC [8] was 1 µg/mL (≈ 5.2 µM), the MIC (Klebsiella pneumoniae [9]) was 5 µg/mL (≈ 26 µM) and the MIC (E. coli. B) was 1 µg/mL (≈ 5.2 µM). It also gave an MIC (E. coli. N99) of 0.1 µg/mL (≈ 0.52 µM), an MIC (Enterobacter cloacae [10]) of 50 µg/mL (≈ 260 µM) and an MIC (Bacillus subtilis) of 50 µg/mL (≈ 260 µM). The “PD50 (day 4)” value (E. coli N99 [11]; intraperitoneal) was greater than 10, the “PD50 (day 4)” value (E. coli N99 [11]; per os) was 8.6 and the “PD50 (day 4)” value (E. coli N99 [11]; subcutaneous) was 4.6. For the same compound, the “PD50 (day 4)” value (S. dublin 369001; per os) was 50, the “PD50 (day 4)” value (S. dublin 369001; subcutaneous) was 20 and the zone of inhibition at 0.025 µg/disc (E. coli N99 [6]; 0.025 μg applied on to disc, 16 hours at 37° C., read-out: mm diameter zones of inhibition vs. E. coli N99) was 0 mm. The zone of inhibition at 0.05 µg/disc (E. coli N99 [6]; 0.05 μg applied on to disc, 16 hours at 37° C., hazy, read-out: mm diameter zones of inhibition vs. E. coli N99) was 10 mm, the zone of inhibition at 1.5 µg/disc (E. coli N99 [6]; [14]) was 29 mm and the zone of inhibition at 1.5 µg/disc (E. coli N99 [6]; 16 hours at 37° C., inner clear, read-out: mm diameter zones of inhibition vs. E. coli N99, inner clear zone) was 23 mm. For the same compound, the “PD50 (day 4)” value (E. coli 341094; per os) was 13.4, the “PD50 (day 4)” value (E. coli 341094; subcutaneous) was 23.2 and the “PD50 (day 4)” value (S. aureus 601055; per os) was 20. For the same compound, the “PD50 (day 4)” value (S. aureus 601055; subcutaneous) was 20.
For `N[C@@H](Cc1ccc(O)cc1)C(=O)O` [L-tyrosine], the “Effect on the E. coli N99 inhibited growth” value (E. coli N99 [12]) was “No reversion”.
With `N[C@@H](Cc1c[nH]c2ccccc12)C(=O)O` [L-tryptophan] the “Effect on the E. coli N99 inhibited growth” value (E. coli N99 [12]) was “No reversion”.
In the case of `O=C(O)CNCP(=O)(O)O` [glyphosate], the “activity in the standard carrot cell test” value (carrot cells [13]) is given as “active”.
For `Nc1ccc(C(=O)O)cc1` [PABA, paraaminobenzoic acid], the “Inhibition of bacterial growth reversed” value (E. coli N99 [12]; Absorbance 540 nm) was “reversed”.
With `N[C@@H](Cc1ccccc1)C(=O)O` [L-Phenyl alanine] the “Effect on the E. coli N99 inhibited growth” value (E. coli N99 [12]) was “No reversion”.
